US20180252712A1, “RECEPTOR FOR NOROVIRUS AND USES THEREOF” (priority 2017, published 2018)

B1: sCD300lf: recombinant, soluble ectodomain of mouse CD300lf (residues 20-128 of GenBank AAH57864.1), expressed in E. coli and refolded (protein)
chain: MEDPVTGPEEVSGQEQGSLTVQCRYTSGWKDYKKYWCQGVPQRSCKTLVETDASEQLVKKNRVSIRDNQRDFIFTVTMEDLRMSDAGIYWCGITKGGLDPMFKVTVNIGP

How the values were obtained:
MNoV^CW3 [1] = assay: CRISPR screen in BV2-Cas9 cells, sgRNA enrichment after MNoV^CW3 infection; format: cell-based, murine norovirus; conditions: for log2 fold enrichment after MNV infection relative to mock infected cells, CW3 MOI 0.05: MNoV^CW3, MOI 0.05, ten days post-infection; for log2 fold enrichment after MNV infection relative to mock infected cells, CW3 MOI 5: MNoV^CW3, MOI 5, ten days post-infection
Protocol: (§1) BV2 cells were transduced with pXPR_101 (Addgene plasmid 52962) and selected with blasticidin for eleven days. Cas9 activity was assessed by transducing parental BV2 or BV2-Cas9 cells with pXPR_011 (Addgene plasmid 59702), expresses eGFP and a sgRNA targeting eGFP at an MOI<1 [1]. Cells were transduced for 2 days and subsequently, selected for five days with puromycin and the frequency of eGFP expression was assessed by flow cytometry. The mouse ASIAGO sgRNA CRISPR library contains six independent genome wide pools which each pool containing a unique sgRNA targeting each of 20,077 mouse genes. Four ASIAGO pools were independently used to generate the BV2 library (Doench et al submitted). Each ASIAGO pool was delivered by lentiviral transduction of 5×10^7 BV2 cells at an MOI ˜0.2. This equates to 1×10^7 transduced cells, which is sufficient for the integration of each sgRNA 500 independent times. Two days post transduction, puromycin was added to the media and transduced cells were selected for five days. For each experimental condition, 1×10^7 BV2-Cas9 cells containing sgRNAs were seeded in a T175 tissue culture flask. Cells were infected with either MNoV^CW3 or MNoV^CR6 at MOls of 0.05 and 5. Mock infected cells were harvested 48 hrs after seeding and served as a reference for sgRNA enrichment analysis. Ten days post-infection genomic DNA was isolated from surviving cells using a Qiamp DNA mini kit according to manufacturer instructions (Qiagen).
(§2) Illumina sequencing and STARS analysis was performed as described previously (Doench et al, in press). Briefly, genomic DNA was aliquoted into multiple wells of a 96-well plate with up to 10 μg of DNA in 50 μl total volume. A PCR mastermix consisting of ExTaq DNA polymerase (Clontech), ExTaq buffer, dNTP, P5 stagger primer, and water was generated. 40 μl of PCR master mix, and 10 μl of a barcoded primer was added to each well containing 50 μl of DNA. Samples were PCR amplified as follows: 95° C. for 1 min., followed by 28 cycles of 94° C. for 30 sec., 52.5° C. for 30 sec., 72° C. for 30 sec. with a final 10 min. at 72° C. PCR product was purified with Agencourt AMPure XP SPRI beads according to the manufacture's protocol (Beckman Coluter). Samples were sequenced on an Illumina HiSeq 2000. Barcodes in the P7 primer were deconvuluted and the sgRNA sequence was mapped to a reference file of sgRNAs in the ASIAGO library. To normalize for different numbers of reads per condition, read counts per sgRNA were normalized to 10^7 total reads per sample. This normalized value was then log-2 transformed. sgRNAs that were not sequenced were arbitrarily assigned a read count of 1. sgRNA frequencies were then analyzed using STARS software, which is available at broadinstitute.org/rnai/public/software/index (Doench et al, in press). STARS computes a score for each gene of rank-ordered sgRNA hits that was above […] of total sequenced sgRNAs. A STAR score was only assigned to genes that scored above this threshold in at least two of four independent genome wide pools.

MNoV^CR6 = assay: CRISPR screen in BV2-Cas9 cells, sgRNA enrichment after MNoV^CR6 infection; format: cell-based, murine norovirus; conditions: for log2 fold enrichment after MNV infection relative to mock infected cells, CR6 MOI 0.05: MNoV^CR6, MOI 0.05, ten days post-infection; for log2 fold enrichment after MNV infection relative to mock infected cells, CR6 MOI 5: MNoV^CR6, MOI 5, ten days post-infection
Protocol: as §1, §2

MNoV^CW3 [2] = assay: Spleen-derived MNoV neutralization (plaque assay); format: cell-based, murine norovirus; conditions: 75 PFU spleen-derived or BV2-derived virus, 10 μg/ml, 30 min preincubation
Protocol: BV2 cells were seeded at 1×10^6 cells/well of a six-well plate. 16-24 hours later, media was removed and 10-fold dilutions of cell lysate is applied to each well for 1 hour with gentle rocking. Viral inoculum was removed and 2 ml of overlay media was added (MEM, 10% FBS, 2 mM L-Gluatmine, 10 mM HEPES, and 1% methylcellulose). Plates were incubated for 2-3 days prior to visualization with crystal violet solution (0.2% crystal violet and 20% ethanol).
To isolate in vivo derived MNoV^CW3, five 7-8 week old C57BL/6J were inoculated PO with 10^6 PFU MNoV^CW3 in 25 μl PBS. Three days post inoculation, mice were sacrificed and spleens were harvested. Spleens were processed by bead beating with 1 mm silica beads (Biospec, Bartlesville, Okla.) for 1 minute. The spleen extract was centrifuged for 5 minutes at 3,000 g, the supernatant was filtered through a 0.22 μm filter, frozen at −80° C., and titered on BV2 cells as described previously.
75 PFU of either BV2 cell-derived or spleen-derived MNoV^CW3 was incubated for 30 min. at room temperature with either sCD300lf or WNV E DIII at 10 μg/ml final concentration in 100 μl total volume of D10. Each sample was then added to a confluent monolayer of BV2 cells in a 6-well plate and incubated for 1 hr. at room temperature. […] Complete media containing methylcellulose was then added and plaque formation was assessed as described previously. […]

MNoV^CW3 [3] = assay: MNoV neutralization with α-CD300lf and sCD300lf (cytotoxicity, CellTiter-Glo); format: cell-based, murine norovirus; conditions: virus preincubated with protein, 0.01 to 10 μg/ml; 24 hours post-infection
Protocol: MNoV neutralization was assessed by measuring cytotoxicity. 2.5×10^4 BV2 cells were plated per well of a 96-well plate. For antibody-mediated neutralization, cells were then incubated for 1 hour at 37° C. with polyclonal α-CD300lf (R&D systems AF2788) or an isotype control (R&D systems AB-108-C) at a final concentration from 0.01 to 10 μg/ml. MNoV^CW3 was then added at an MOI of 5 in a total volume of 100 μl. After 24 hours at 37° C., 25 μl of CellTiter-Glo (Promega) was added per well to measure cellular ATP concentrations. For sCD300lf neutralization, the assay was performed similarly except that 1.25×10^5 PFU of MNoV^CW3 was incubated with sCD300lf or a control protein (Domain III of West Nile Virus Envelope) at a final concentration from 0.01 μg to 10 μg/ml prior to addition of BV2 cells. Relative luminescence units were detected on Molecular Devices SpectraMax M2 plate reader. All conditions were normalized to an uninfected control. Each condition was done in quadruplicate in each of three independent experiments.

MNoV^CW3 [4] = assay: MNoV binding assay to BV2 cells (bound genomes by qPCR); format: cell-based, murine norovirus
Protocol: MNoV^CW3 quantitiatve PCR (qPCR) was performed as previously described. Briefly, 5 μl of extracted viral RNA was used for cDNA synthesis using random hexamers and ImProm Reverse Transcriptase (Promega, Madison, Wis.) in 20 μl total volume. TaqMan qPCR was performed in triplicate on each sample and standard with forward primer SEQ ID NO:20 (5′ […] 3′), reverse primer SEQ ID NO:21 (5′ GCGCTGCGCCATCACTC 3′), and probe.
MNoV^CW3 binding to BV2 cells was performed for 1 hour at 4° C. in 0.5 ml complete growth media. sCD300lf was incubated with MNoV^CW3 for 30 minutes at room temperature prior to addition to cells. α-CD300lf was incubated with cells for 30 minutes at 4° C. prior to the addition of MNoV^CW3. BV2 cells were used at final concentration of 2×10^6 cells/ml, and MNoV^CW3 was used at a final concentration of 1.6×10^9 copies/ml (2.5×10^6 PFU/ml). Cells were centrifuged at 500 g for 5 min at 4° C. to remove unbound virus. Cells were washed with four 1.0 ml washes with PBS containing 2.5% FBS and 2 mM EDTA. The cell pellet was resuspended in 100 μl PBS, and RNA was extracted with the ZR Viral RNA kit (Zymo Research) according to manufacturer instructions. qPCR was performed as described above. Binding experiments were done in triplicate in each of at least three independent experiments. A condition containing virus but no cells was used to determine assay background.
To determine the effect of glycans on MNoV binding, parental BV2 cells, ΔCD300lf BV2 clone 1 cells complemented with an empty lentivirus, and ΔCD300lf BV2 clone 1 cells complemented with CD300lf were cultured in the presence of 1 μg/ml of kifunensine (Santa Cruz Biotechnology) for at least 48 hours prior to use. Kifunensine activity was determined by staining cells with FITC-conjugated wheat germ agglutinin (WGA) at 1 μg/ml final concentration (Sigma Aldrich). The reduction in glycosylation was determined by comparing the mean fluorescence intensity (MFI) with and without kifunensine treatment. WGA binding was determined at the time of each binding assay.

MNoV^CW3 [5] = assay: BMDM infection, FACS for intracellular MNoV NS1/2 expression; format: cell-based, murine norovirus; conditions: virus preincubated with sCD300lf or cells treated with α-CD300lf; MOI 5.0
Protocol: BL6 myeloid progenitors were obtained from mice (FIG. 2E) or from HoxB8-immortalized progenitors (FIG. 2D) as previously described.HoxB8-immortalized progenitors were maintained in RPMI 1640 supplemented with 1 μM β-estradiol and 25 ng/ml GM-CSF. Progenitors were differentiated into macrophages by washing the cells in PBS and plating 1×10^6 cells into BMDM media (Dulbeco's Modified Eagle Medium, 10% fetal bovine serum, 5% horse serum, 10% CMG14-12 [6], 1 mM sodium pyruvate, 2 mM L-glutamine). After 7 days of differentiation, macrophages were dissociated and 5×10^6 cells/well were seeded into a 6-well dish. Three days later, MNoV^CW3 was added to cells at an MOI of 5.0. One day post infection, MNoV NS1/2 expression was detected by flow cytometry.
Infected cells were fixed and permeabilized with Cytofix/Cytoperm (BD biosciences) Rabbit polyclonal antibody targeting the MNoV nonstructural protein NS1/2 antibody was added at a 1:5000 dilution (Gift from Vernon Ward). Cells were incubated for 30 min. at room temperature. Cells were then washed and DyLight 649 donkey anti-rabbit IgG was added and incubated for 30 min. Cells were then washed and analyzed on an LSRII flow cytometer (BD). At least 20,000 events were collected per condition. Each experiment was performed in triplicate in each of three independent experiments.

MNoV^CW3 [6] = assay: Challenge of STAT1−/− mice with preincubated MNoV^CW3, survival; format: in vivo, murine norovirus; conditions: PO 10^3 or 10^5 PFU MNoV^CW3 preincubated at 10 μg/ml, 28 days
Protocol: B6.129S(Cg)-Stat1^tm1Div/J (STAT1^−/−) mice and C57BL/6J (Jackson Laboratories, Bar Harbor, Me.) and Fut2^−/− (B6.129X1-Fut2^tm1Sdo/J) mice (a generous gift from Dr. Alexander V. Chervonsky) were housed in a specific-pathogen free environment at Washington University. The care and use of all animals was approved by and in accordance with the Washington University Animal Studies Committee. For the challenge of STAT^−/− mice, MNoV^CW3 was incubated with sCD300lf or WNV E DIII at a final concentration of 10 μg/ml for 30 minutes at room temperature. STAT1^−/− mice were challenged with 25 μl PO of 10^3 or 10^5 PFU of MNoV^CW3 diluted in D10. STAT1^−/− mice were singly housed immediately after inoculation and monitored daily for survival for 28 days. Experiments were performed three independent times with gender-balanced littermate controls at both 10^3 and 10^5 PFU challenge doses.

| Molecule | log2 fold enrichment after MNV infection relative to mock infected cells, CW3 MOI 0.05 (MNoV^CW3 [1]) | log2 fold enrichment after MNV infection relative to mock infected cells, CW3 MOI 5 (MNoV^CW3 [1]) | log2 fold enrichment after MNV infection relative to mock infected cells, CR6 MOI 0.05 (MNoV^CR6) | log2 fold enrichment after MNV infection relative to mock infected cells, CR6 MOI 5 (MNoV^CR6) | Neutralization of MNoV isolated from spleens of MNoV^CW3-infected mice (plaque assay) (MNoV^CW3 [2]) | MNoV^CW3-induced cytopathic effect in BV2 cells (cell viability) (MNoV^CW3 [3]) | MNoV^CW3 binding to BV2ΔCD300lf cells (MNoV^CW3 [4]; BV2ΔCD300lf cells, cells treated with α-CD300lf or virus premixed with sCD300lf) | MNoV^CW3 binding to BV2 cells (MNoV^CW3 [4]; wild type BV2 cells, cells treated with α-CD300lf or virus preincubated with sCD300lf, 1 hour at 4° C.) | MNoV^CW3 infection of primary bone marrow-derived macrophages (NS1/2 expression by FACS) (MNoV^CW3 [5]) | Protection from MNoV induced lethality (survival) (MNoV^CW3 [6]) |
| --- | --- | --- | --- | --- | --- | --- | --- | --- | --- | --- |
| TAGAGCAGAGAACTGCCACA: sgRNA used in screen, matches CD300ld (listed as DNA, chemistry not given here) | −6.7 log2 fold enrichment | −6.7 log2 fold enrichment | −6.7 log2 fold enrichment | −6.7 log2 fold enrichment | – | – | – | – | – | – |
| TCAGAGAAAGAAACGAAGAG: sgRNA used in screen, matches CD300lb (listed as DNA, chemistry not given here) | −5.5 log2 fold enrichment | −5.5 log2 fold enrichment | −5.5 log2 fold enrichment | −5.5 log2 fold enrichment | – | – | – | – | – | – |
| TGTCACTGTGAAGATGGTGG: sgRNA used in screen, matches CD300lf (listed as DNA, chemistry not given here) | 8.4 log2 fold enrichment | 13.3^B log2 fold enrichment | 7.2 log2 fold enrichment | −1.9 log2 fold enrichment | – | – | – | – | – | – |
| B1 | – | – | – | – | remained sensitive to sCD300lf inhibition | neutralized MNoV^CW3-induced cytopathic effect | not further inhibited | reduced MNoV binding | inhibited | able to protect from MNoV induced lethality |
